pIC50: −log10 of the molar value. Like-named read-outs stand apart in the source and are kept apart here. Where only a bound is given, the exact number is not on record here.

Test [1] has as its target T1, GLUT1 (Homo sapiens, UniProt P11166).
T1 construct: host or cells: CAL 27 human squamous carcinoma cells
T1 sequence (P11166 1-492): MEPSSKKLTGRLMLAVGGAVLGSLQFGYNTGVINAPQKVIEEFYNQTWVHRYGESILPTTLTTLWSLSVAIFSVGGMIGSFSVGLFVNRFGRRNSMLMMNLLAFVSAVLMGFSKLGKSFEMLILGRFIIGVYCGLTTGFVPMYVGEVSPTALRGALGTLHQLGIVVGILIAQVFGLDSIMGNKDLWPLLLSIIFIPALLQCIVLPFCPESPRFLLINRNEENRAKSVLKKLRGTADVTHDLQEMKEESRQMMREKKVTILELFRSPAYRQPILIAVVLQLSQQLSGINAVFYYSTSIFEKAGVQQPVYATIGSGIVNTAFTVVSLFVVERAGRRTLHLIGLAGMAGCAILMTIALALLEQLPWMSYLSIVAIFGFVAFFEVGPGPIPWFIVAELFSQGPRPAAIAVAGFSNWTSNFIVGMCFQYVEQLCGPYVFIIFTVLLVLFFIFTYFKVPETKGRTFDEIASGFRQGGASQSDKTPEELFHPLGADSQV
The experiment in a line: GLUT1 affinity cis-inhibition assay against [14C]-D-glucose in CAL 27 cells. Type of test: cell-based. Conditions: competition with 1.8 μM [14C]-D-glucose, 5 min, room temperature, 0.1–1800 μM. The text has this:
From the drug development perspective, it is central to understand the molecular interactions between the ligand and the transporter. For example, in a BNCT context, the selectivity and success of the treatments are directly related to the preferential uptake of boron-10 enriched delivery agents by cancer cells. In our case, the GLUT1 transporter, which is overexpressed on various cancers, is responsible for the uptake process. The clinical validity and therapeutic utility of the approach stem from the “Warburg effect”.[7],[8] Cancer cells have an impaired D-glucose metabolism while simultaneously displaying a high proliferation rate and energy demand. Together, these factors contribute to an increased D-glucose uptake in cancer cells compared to healthy cells and offer a basis for pursuing a GLUT1-targeting strategy in BNCT. Based on the available tumor imaging data obtained through the use of FDG,[38] head and neck cancers represent a promising target for our approach. Therefore, we employed the human squamous carcinoma cell line CAL 27 as a suitable model for the in vitro assessment of GLUT1-targeting delivery agents. In addition to being a relevant head and neck cancer cell line of human origin, the GLUT1-transporter has been indicated to play a key role in the aberrant growth of CAL 27 cells.[39],[40] In our previous work, we validated the GLUT1-function, quantified the GLUT1-expression, and developed a cis-inhibition assay for determining the relative affinities of GLUT1-targeting delivery agents to GLUT1 in the CAL 27 cell line.[13],[14] To allow comparison of the results of the present study to our earlier ones, we used the same protocols herein. The fully deprotected glucoconjugates 1–4 were subjected to the cis-inhibition assay, i.e., they were forced to compete for the transporter against radiolabeled [^14C]-D-glucose in order to assess their targeting capabilities from a functional point of view. A high GLUT1 affinity, i.e., a low IC50 value, is characteristic of delivery agents that are able to target the transporter in the presence of the natural substrate D-glucose in a biological milieu. […] Large differences in the IC50 values were thus noted. […] These two delivery agents display acceptable GLUT1-targeting capabilities. […] While the trend is clear, the results are surprising. The question that arises is as follows: which underlying factors contribute to these notable deviations uncovered through the experimental cis-inhibition assay?
The GLUT1 affinity assay was performed according to our previously developed protocol.[13],[14] […] Liquid scintillation counter (MicroBeta^2 counter, PerkinElmer, Waltham, MA, USA) was used to assess the radioactivity, and the IC50 values were determined by nonlinear regression analysis.

Test [2] concerns CAL 27 cell line. The experiment in a line: Cellular uptake (boron delivery capacity) by ICP-MS boron quantification. The class given is cell-based, human. Particulars: for Vmax (boron uptake, Michaelis–Menten) / Km: 10–400 μM; for Km: read-out: Km (boron uptake, Michaelis–Menten); for behaviour at GLUT1 inferred from affinity and uptake profiles: CAL 27. Here is the method: The uptake studies were performed according to our recently reported protocol.[13],[14] […] This, however, is not a concern, as the cell-killing effect caused by the thermal neutron beam in actual BNCT treatments has a destructive radius reminiscent to the diameter of a single cell (5–9 μm in biological tissue).[46] In the uptake studies, the concentration range 10–400 μM was screened. The incubation times 5, 30, and 120 min were chosen due the optimal performance of [^14C]-D-glucose under these conditions. Since inductively-coupled plasma mass spectrometry (ICP-MS) is somewhat insensitive when it comes to quantification of the boron content, thoroughly washed cells from four wells were combined and digested before being subjected to the analysis. […] However, we noticed that the Km values were consistently higher with the S-linked carboranyl species compared to the O-linked carboranylmethyl species.[14] The higher Km value may imply that there are additional transport mechanisms involved in the uptake of the S-series delivery agents. More work is needed to ascertain these factors. Regardless, the different Km values may likewise indicate that a greater concentration, which may no longer be clinically relevant, would be required for the S-series species to reach Vmax.
The cells were first pre-incubated. The substrates were then added in different concentration (10–400 μM in 250 μL of HBSS) and incubation was continued for 5, 30, and 120 min at room temperature. Ice-cold buffer was used to quench the reaction at the set time points. Washing and lysis was carried out as mentioned above. A combined sample was prepared in an Eppendorf tube by addition of cell lysate from four wells. The combined sample was centrifuged at +4 °C. From the supernatant of every sample, 800 μL was taken and digested in 1.0 mL of HNO3 (TraceMetal grade, Fisher Chemical) for 24 h. Milli-Q water (USF Elga Purelab Ultra) was added until the sample volume was 10 mL, and the boron contents were assessed in triplicates by ICP-MS. More details on the ICP method can be found in our earlier work.[13],[14] PerkinElmer Syngistix Data Analysis Software was used for data analysis and GraphPad Prism v.5.03 software (GraphPad Software, San Diego, Ca, USA) for statistical analysis.

A word on the pIC50: it is the IC50 on a negative log10 scale, so that one unit is a factor of ten. For orientation: Km means the substrate concentration at which the rate is half of its maximum. “6-Deoxy-6-thio-(1,2-dicarba-closo-dodecaboran-9-yl)-D-glucopyranose [Compound 3]” showed a pIC50 in test [1] of 3.01. In addition, in test [2] (CAL 27, 5 min incubation), the “Vmax (boron uptake, Michaelis–Menten)” value was determined as 0.03 μg B/mg protein and the Km worked out at 110 µM.
For the compound “6-Deoxy-6-thio-(1,7-dicarba-closo-dodecaboran-1-yl)-D-glucopyranose [Compound 2]”, in test [1], the negative-log IC50 (pIC50) is 3.92. Also, the “behaviour at GLUT1 inferred from affinity and uptake profiles” value in test [2] was “enters the cells through the transporter at an acceptable rate”. Besides, the “boron delivery capacity compared to the other delivery agents screened (BPA, BSH)” value in test [2] (CAL 27, 10–400 μM, 5, 30 and 120 min) was “fivefold higher delivery capacity”. The “Vmax (boron uptake, Michaelis–Menten)” value in test [2] (CAL 27, 5 min incubation) is listed as 6.60 μg B/mg protein; in test [2] (CAL 27, 30 min incubation), 1.80 μg B/mg protein; in test [2] (CAL 27, 120 min incubation), 2.19 μg B/mg protein. The Km was found to be 1810 µM in test [2] (CAL 27, 5 min incubation); 237 µM in test [2] (CAL 27, 30 min incubation); 208 µM in test [2] (CAL 27, 120 min incubation).
In turn, “6-Deoxy-6-thio-(1,2-dicarba-closo-dodecaboran-1-yl)-D-glucopyranose [Compound 1]” gave a pIC50 in test [1] of 3.90. In test [2], the “behaviour at GLUT1 inferred from affinity and uptake profiles” value is listed as “seems to act as a GLUT1-antagonist”. The “Vmax (boron uptake, Michaelis–Menten)” value in test [2] (CAL 27, 5 min incubation) is given as 1.34 μg B/mg protein; in test [2] (CAL 27, 30 min incubation), 0.83 μg B/mg protein. Besides, the Km in test [2] (CAL 27, 5 min incubation) was found to be 1830 µM; in test [2] (CAL 27, 30 min incubation), 556 µM.
As for `OC[C@H]1OC(O)[C@H](O)[C@@H](O)[C@@H]1O` (stereo partly drawn) [D-glucose, reference compound], the pIC50 in test [1] was below 3.00.

(Values after article PMC9434784, “Synthesis and In Vitro Evaluation of a Set of 6-Deoxy-6-thio-carboranyl D-Glucoconjugates Shed Light on the Substrate Specificity of the GLUT1 Transporter” (ACS Omega, 2022).)
